Calls of active or inactive are those of the source. The rule behind the calls is not given here.

The text below walks through data of ChEMBL document CHEMBL4346718, “Cucurbitacins inspired organic synthesis: Potential dual inhibitors targeting EGFR - MAPK pathway” (Eur J Med Chem, 2019).

Experiment [1] deals with HepG2. Nature of the experiment: Antiproliferative activity against human HepG2 cells assessed as reduction in cell growth incubated for 48 hrs by MTT assay. As to conditions: HepG2, 48 h. The format is functional, cell-based.
For experiment [2], the system named is HepG2. Nature of the experiment: Inhibition of cell migration in human HepG2 cells at IC50 incubated for 48 hrs by phase contrast microscopy. The class given is functional.
Experiment [3] concerns HepG2. The experiment can be described thus: Inhibition of EGFR/MAPK signalling pathway in human HepG2 cells assessed as reduction in phosphorylation of B-RAF at 3 uM incubated for 24 hrs by Western blot analysis. The class given is cell-based.
In experiment [4] the test system is HepG2. Nature of the experiment: Induction of apoptosis in human HepG2 cells assessed as increase in cleaved caspase-3 level at 2 uM incubated for 48 hrs by Western blot analysis. The class given is functional, cell-based.
Experiment [5] deals with HepG2. The experiment can be described thus: Induction of cell cycle arrest in human HepG2 cells assessed as accumulation at G2 phase at 4 uM incubated for 24 hrs by flow cytometry analysis (reference value: 37.5%). The class given is functional.
The subject of experiment [6] is HepG2. The experiment can be described thus: Induction of cell cycle arrest in human HepG2 cells assessed as accumulation at S phase at 1 uM incubated for 24 hrs by flow cytometry analysis (reference value: 26.1%). The format is functional.
The subject of experiment [7] is HepG2. Nature of the experiment: Induction of apoptosis in human HepG2 cells assessed as increase in cleaved caspase-9 level at 2 uM incubated for 48 hrs by Western blot analysis. The format is functional, cell-based.
Experiment [8] relates to HepG2. Nature of the experiment: Inhibition of EGFR/MAPK signalling pathway in human HepG2 cells assessed as reduction in phosphorylation of ERK 1/2 at 3 uM incubated up to 48 hrs by Western blot analysis. The format is cell-based.
Experiment [9] relates to HepG2. Nature of the experiment: Induction of cell cycle arrest in human HepG2 cells assessed as accumulation at G1 phase at 2 uM incubated for 24 hrs by flow cytometry analysis (reference value: 32.3%). The class given is functional.
Experiment [10] concerns HepG2. The experiment can be described thus: Induction of cell cycle arrest in human HepG2 cells assessed as accumulation at G2 phase at 2 uM incubated for 24 hrs by flow cytometry analysis (reference value: 37.5%). The class given is functional.
Experiment [11] concerns HepG2. Nature of the experiment: Inhibition of EGFR/MAPK signalling pathway in human HepG2 cells assessed as reduction in phosphorylation of MEK at 3 uM incubated up to 48 hrs by Western blot analysis. The format is cell-based.
Experiment [12] relates to HepG2. The experiment can be described thus: Induction of cell cycle arrest in human HepG2 cells assessed as accumulation at G1 phase at 1 uM incubated for 24 hrs by flow cytometry analysis (reference value: 32.3%). The class given is functional.
Experiment [13] relates to HepG2. Nature of the experiment: Inhibition of EGFR/MAPK signalling pathway in human HepG2 cells assessed as reduction in ELK phosphorylation incubated for 24 hrs by Western blot analysis. The format is cell-based.
Experiment [14] relates to HepG2. Nature of the experiment: Induction of cell cycle arrest in human HepG2 cells assessed as accumulation at S phase at 2 uM incubated for 24 hrs by flow cytometry analysis (reference value: 26.1%). The class given is functional.
Experiment [15] relates to HepG2. Nature of the experiment: Induction of cell cycle arrest in human HepG2 cells assessed as accumulation at S phase at 4 uM incubated for 24 hrs by flow cytometry analysis (reference value: 26.1%). The class given is functional.
Experiment [16] deals with HepG2. Nature of the experiment: Induction of apoptosis in human HepG2 cells assessed as increase in cleaved PARP-1 level at 2 uM incubated for 48 hrs by Western blot analysis. The format is functional, cell-based.
The subject of experiment [17] is HepG2. Nature of the experiment: Induction of cell cycle arrest in human HepG2 cells assessed as accumulation at G1 phase at 4 uM incubated for 24 hrs by flow cytometry analysis (reference value: 32.3%). The class given is functional.
For experiment [18], the system named is HepG2. The experiment can be described thus: Inhibition of EGFR/MAPK signalling pathway in human HepG2 cells assessed as reduction in phosphorylation of EGFR at 3 uM incubated for 48 hrs by Western blot analysis. The class given is cell-based.
For experiment [19], the system named is HepG2. The experiment can be described thus: Induction of cell cycle arrest in human HepG2 cells assessed as accumulation at G2 phase at 1 uM incubated for 24 hrs by flow cytometry analysis (reference value: 37.5%). The class given is functional.
The test system of experiment [20] is HepG2. Nature of the experiment: Inhibition of EGFR/MAPK signalling pathway in human HepG2 cells assessed as reduction in phosphorylation of B-RAF at 2 uM incubated for 8 hrs by Western blot analysis. The class given is cell-based.
In experiment [21] the test system is HepG2. Nature of the experiment: Inhibition of EGFR/MAPK signalling pathway in human HepG2 cells assessed as reduction in phosphorylation of ERK 1/2 at 2 uM incubated up to 48 hrs by Western blot analysis. The class given is cell-based.
Experiment [22] has as its system HepG2. The experiment can be described thus: Inhibition of EGFR/MAPK signalling pathway in human HepG2 cells assessed as reduction in phosphorylation of MEK at 2 uM incubated up to 48 hrs by Western blot analysis. The format is cell-based.
Experiment [23] has as its system HepG2. The experiment can be described thus: Inhibition of EGFR/MAPK signalling pathway in human HepG2 cells assessed as reduction in phosphorylation of EGFR at 2 uM incubated for 2 hrs by Western blot analysis. The class given is cell-based.

Consider `COc1ccc2c(c1)CC[C@@H]1[C@@H]2CC[C@]2(C)C([C@](C)(O)C(=O)/C=C/c3ccc(C(F)(F)F)cc3)=CC[C@@H]12`, for which, in experiment [1], the IC50 was 3 µM.

For `COc1ccc(/C=C/C(=O)[C@@](C)(O)C2=CC[C@H]3[C@@H]4CCc5cc(OC)ccc5[C@H]4CC[C@]23C)cc1`, the IC50 in experiment [1] was found to be 16 µM.

As to `C#Cc1cccc(Nc2ncnc3cc(OCCOC)c(OCCOC)cc23)c1` [ERLOTINIB], in [2], the “inhibition (INH)” value is reported as 93%.

For the compound `COc1ccc2c(c1)CC[C@@H]1[C@@H]2CC[C@]2(C)C([C@@](C)(O)C(=O)/C=C/c3ccc([N+](=O)[O-])cc3)=CC[C@@H]12`, in experiment [1], the IC50 is 20 µM.

Regarding `COc1ccc2c(c1)CC[C@@H]1[C@@H]2CC[C@]2(C)C([C@@](C)(O)C(=O)/C=C/c3ccc(Br)cc3)=CC[C@@H]12`, the half-maximal inhibitory concentration (IC50) in experiment [1] came out at 32 µM.

Turning to `COc1ccc2c(c1)CC[C@@H]1[C@@H]2CC[C@]2(C)C([C@@](C)(O)C(=O)/C=C/c3ccc(Br)s3)=CC[C@@H]12`, in experiment [1], the IC50 is 0.7 µM.

Take `COc1ccc2c(c1)CC[C@@H]1[C@@H]2CC[C@]2(C)C([C@@](C)(O)C(=O)/C=C/c3ccc(C(F)(F)F)cc3)=CC[C@@H]12`: the IC50 in experiment [1] was 2 µM.

Take `COc1ccc(/C=C/C(=O)[C@](C)(O)C2=CC[C@H]3[C@@H]4CCc5cc(OC)ccc5[C@H]4CC[C@]23C)cc1`: in [1], the IC50 came to 2 µM.

Regarding `COc1ccc2c(c1)CC[C@@H]1[C@@H]2CC[C@]2(C)C([C@](C)(O)C(=O)/C=C/c3ccc(F)cc3)=CC[C@@H]12`, the IC50 in experiment [1] was 8 µM.

Regarding `COc1ccc2c(c1)CC[C@@H]1[C@@H]2CC[C@]2(C)C([C@](C)(O)C(=O)/C=C/c3ccc(Br)s3)=CC[C@@H]12`, the 50% inhibitory concentration (IC50) in experiment [1] came out at 11 µM.

Take `COc1ccc2c(c1)CC[C@@H]1[C@@H]2CC[C@]2(C)C([C@](C)(O)C(=O)/C=C/c3ccc([N+](=O)[O-])cc3)=CC[C@@H]12`: the IC50 in [1] is 29 µM.

For `COc1ccc2c(c1)CC[C@@H]1[C@@H]2CC[C@]2(C)C([C@@](C)(O)C(=O)/C=C/c3ccc(Cl)cc3)=CC[C@@H]12`, the IC50 in experiment [1] turned out to be 25 µM.

Turning to `COc1ccc2c(c1)CC[C@@H]1[C@@H]2CC[C@]2(C)C([C@@](C)(O)C(=O)/C=C/C(C)(C)O)=CC[C@@H]12`, the inhibition entry in experiment [3], in experiment [8], in experiment [11] and in [13] was “Active” throughout. For the same compound, the outcome in experiment [4], in experiment [7] and in [16] was Active. The Activity worked out at 21.1% in experiment [5]; 23.4% in experiment [6]; 37.6% in experiment [9]; 34.1% in [10]; 36.1% in [12]; 23.2% in experiment [14]. The Activity in [15] was 37.4%; in experiment [17], 41.1%; in experiment [19] it was 38%. Besides, in experiment [2], the “inhibition (INH)” value is reported as 100%. Further, the inhibition in experiment [18] came to 90%. Moreover, the IC50 in [1] came to 2 µM.

With `COc1ccc2c(c1)CC[C@@H]1[C@@H]2CC[C@]2(C)C([C@@](C)(O)C(=O)/C=C/c3ccc(Br)o3)=CC[C@@H]12`, the IC50 in experiment [1] was 6 µM.

Turning to `COc1ccc2c(c1)CC[C@@H]1[C@@H]2CC[C@]2(C)C([C@@](C)(O)C(=O)/C=C/c3ccc(F)cc3)=CC[C@@H]12`, the 50% inhibitory concentration (IC50) in experiment [1] came to 7 µM.

Take `COc1ccc2c(c1)CC[C@@H]1[C@@H]2CC[C@]2(C)C([C@](C)(O)C(=O)/C=C/C(C)(C)O)=CC[C@@H]12`: the inhibition result in experiment [20], in experiment [21], in experiment [22], in experiment [23] and in [2] was “Active” in each case. In addition, the IC50 in experiment [1] was determined as 3 µM.
